Results: patent US9624214B2, “Amino-substituted imidazo[1,2-a]pyridinecarboxamides and their use” (BAYER PHARMA AKTIENGESELLSCHAFT, priority 2012, dated 2017)
Where a name gives a salt, the structure may show the parent alone.

Target: T1, recombinant guanylate cyclase reporter cell line (Rattus norvegicus, UniProt P19686+P20595)
T1 construct: expressed in transfected cells
T1 sequence (P20595 1-619): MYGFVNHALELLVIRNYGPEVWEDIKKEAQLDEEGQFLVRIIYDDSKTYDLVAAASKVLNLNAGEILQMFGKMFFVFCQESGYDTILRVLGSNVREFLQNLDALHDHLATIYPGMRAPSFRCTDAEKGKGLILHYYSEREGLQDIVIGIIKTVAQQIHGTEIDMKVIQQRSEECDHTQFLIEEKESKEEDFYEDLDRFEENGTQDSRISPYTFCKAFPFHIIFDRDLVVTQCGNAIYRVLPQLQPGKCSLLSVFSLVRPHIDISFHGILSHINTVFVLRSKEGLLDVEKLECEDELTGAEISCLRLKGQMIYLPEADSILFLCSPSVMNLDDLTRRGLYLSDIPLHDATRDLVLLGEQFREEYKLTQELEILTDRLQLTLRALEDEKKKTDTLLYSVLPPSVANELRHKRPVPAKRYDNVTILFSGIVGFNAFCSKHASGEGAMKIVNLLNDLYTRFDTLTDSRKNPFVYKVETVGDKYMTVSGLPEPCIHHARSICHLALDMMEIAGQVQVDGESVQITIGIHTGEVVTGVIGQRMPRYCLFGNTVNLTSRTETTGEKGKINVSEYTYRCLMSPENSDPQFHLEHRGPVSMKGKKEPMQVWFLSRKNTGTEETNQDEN
T1 sequence (P19686 1-690): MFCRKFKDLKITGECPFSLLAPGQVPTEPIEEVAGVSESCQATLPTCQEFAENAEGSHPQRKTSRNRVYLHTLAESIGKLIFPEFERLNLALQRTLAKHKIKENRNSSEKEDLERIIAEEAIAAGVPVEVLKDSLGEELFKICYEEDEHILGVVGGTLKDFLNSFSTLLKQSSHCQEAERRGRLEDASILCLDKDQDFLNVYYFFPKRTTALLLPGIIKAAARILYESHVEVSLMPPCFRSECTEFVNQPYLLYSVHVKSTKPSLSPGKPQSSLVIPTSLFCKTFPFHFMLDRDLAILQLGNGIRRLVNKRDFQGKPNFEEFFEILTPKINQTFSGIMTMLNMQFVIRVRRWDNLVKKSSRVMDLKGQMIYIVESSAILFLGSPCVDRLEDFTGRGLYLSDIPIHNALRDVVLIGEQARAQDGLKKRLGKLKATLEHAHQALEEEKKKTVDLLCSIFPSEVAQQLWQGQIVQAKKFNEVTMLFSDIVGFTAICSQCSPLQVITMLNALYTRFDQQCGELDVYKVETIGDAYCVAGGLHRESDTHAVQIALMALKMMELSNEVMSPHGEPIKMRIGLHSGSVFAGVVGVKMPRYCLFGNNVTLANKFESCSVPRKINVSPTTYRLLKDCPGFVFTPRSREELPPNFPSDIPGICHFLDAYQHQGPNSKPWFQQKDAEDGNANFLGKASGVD
Assay: B-2. Action on recombinant guanylate cyclase reporter cell line
Format: cell-based
Conditions: MEC = minimal effective concentration; in some cases mean values from individual determinations
Outline: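 Cellular activity was measured in a reporter cell line expressing recombinant guanylate cyclase. Values are given as MEC, the minimal effective concentration, and some are means of individual determinations.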

**Q.** Which MEC does the source give for `Cc1nc2c(OCc3c(F)cccc3F)cc(Cl)cn2c1C(=O)NCC1(N)CC1` [Example 39, N-[(1-aminocyclopropyl)methyl]-6-chloro-8-[(2,6-difluorobenzyl)oxy]-2-methylimidazo[1,2-a]pyridine-3-carboxamide] here?
**A.** 0.10 µM

**Q.** With `Cc1cc(OCc2c(F)cccc2F)c2nc(C)c(C(=O)NCC3(N)CC3)n2c1` [Example 40, N-[(1-aminocyclopropyl)methyl]-8-[(2,6-difluorobenzyl)oxy]-2,6-dimethylimidazo[1,2-a]-pyridine-3-carboxamide] as the molecule, how does the MEC read?
**A.** 0.10 µM

**Q.** `Cc1nc2c(OCc3c(F)cccc3F)cccn2c1C(=O)NCC1(N)CCCC1` [Example 41, N-[(1-aminocyclopentyl)methyl]-8-[(2,6-difluorobenzyl)oxy]-2-methylimidazo[1,2-a]-pyridine-3-carboxamide] was tested. Which MEC did it give?
**A.** 0.30 µM

**Q.** How did the MEC turn out when `Cc1nc2c(OCc3c(F)cccc3F)cc(Cl)cn2c1C(=O)NCC1(N)CCCC1` [Example 42, N-[(1-aminocyclopentyl)methyl]-6-chloro-8-[(2,6-difluorobenzyl)oxy]-2-methylimidazo[1,2-a]pyridine-3-carboxamide] was run?
**A.** 1.00 µM

**Q.** For `Cc1nc2c(OCC3CCCCC3)cccn2c1C(=O)NC(CN)c1ccc(F)cc1F` (stereo not drawn) [Example 45, ent-N-[2-Amino-1-(2,4-difluorophenyl)ethyl]-8-(cyclohexylmethoxy)-2-methylimidazo[1,2-a]-pyridine-3-carboxamide], which MEC is on record?
**A.** 1.00 µM

**Q.** How did the MEC turn out when `Cc1cc(OCc2c(F)cccc2F)c2nc(C)c(C(=O)NC(C)CN)n2c1` (stereo not drawn) [Example 48, ent-N-(1-Aminopropan-2-yl)-8-[(2,6-difluorobenzyl)oxy]-2,6-dimethylimidazo[1,2-a]pyridine-3-carboxamide] was run?
**A.** 1.00 µM

**Q.** For `Cc1cc(OCc2c(F)cccc2F)c2nc(C)c(C(=O)NC(CN)c3ccc(F)c(F)c3)n2c1` (stereo not drawn) [Example 51, ent-N-[2-Amino-1-(3,4-difluorophenyl)ethyl]-8-[(2,6-difluorobenzyl)oxy]-2,6-dimethylimidazo-[1,2-a]pyridine-3-carboxamide], which MEC is on record?
**A.** 0.20 µM

**Q.** With `Cc1nc2c(OCc3c(F)cccc3F)cc(F)cn2c1C(=O)NC(CN)c1ccc(F)c(F)c1` (stereo not drawn) [Example 53, ent-N-[2-Amino-(3,4-difluorophenyl)ethyl]-8-[(2,6-difluorobenzyl)oxy]-6-fluoro-2-methylimidazo[1,2-a]pyridine-3-carboxamide] as the molecule, how does the MEC read?
**A.** 0.30 µM

**Q.** Which MEC does the source give for `NCC(NC(=O)c1c(C2CC2)nc2c(OCc3c(F)cccc3F)cccn12)c1ccc(F)c(F)c1` (stereo not drawn) [Example 54, ent-N-[2-amino-1-(3,4-difluorophenyl)ethyl]-2-cyclopropyl-8-[(2,6-difluorobenzyl)oxy]-imidazo[1,2-a]pyridine-3-carboxamide] here?
**A.** 1.00 µM

**Q.** How did the MEC turn out when `NCC(NC(=O)c1cnc2c(OCc3c(F)cccc3F)cccn12)c1ccc(F)c(F)c1` (stereo not drawn) [Example 55, ent-N-[2-amino-1-(3,4-difluorophenyl)ethyl]-8-[(2,6-difluorobenzyl)oxy]imidazo[1,2-a]pyridine-3-carboxamide dihydrochloride] was run?
**A.** 2.00 µM

**Q.** `Cc1nc2c(OCc3c(F)cccc3F)cccn2c1C(=O)N[C@H]1CCCNC1` [Example 60, 8-[(2,6-difluorobenzyl)oxy]-2-methyl-N-[(3S)-piperidin-3-yl]imidazo[1,2-a]pyridine-3-carboxamide dihydrochloride] was tested. Which MEC did it give?
**A.** 0.30 µM

**Q.** With `Cc1nc2c(OCc3c(F)cccc3F)cccn2c1C(=O)N[C@H]1CCNC1` [Example 61, 8-[(2,6-Difluorobenzyl)oxy]-2-methyl-N-[(3S)-pyrrolidin-3-yl]imidazo[1,2-a]pyridine-3-carboxamide] as the molecule, how does the MEC read?
**A.** 3.00 µM

**Q.** For `CCCC[C@H](CN1CCOCC1)NC(=O)c1c(C)nc2c(OCc3c(F)cccc3F)cccn12` [Example 64, ent-8-[(2,6-Difluorobenzyl)oxy]-2-methyl-N-[(2R)-1-(morpholin-4-yl)hexan-2-yl]imidazo[1,2-a]-pyridine-3-carboxamide], which MEC is on record?
**A.** 0.30 µM

**Q.** How did the MEC turn out when `CCCC[C@H](CN1CCCC1)NC(=O)c1c(C)nc2c(OCc3c(F)cccc3F)cccn12` [Example 66, ent-8-[(2,6-difluorobenzyl)oxy]-2-methyl-N-[(2R)-1-(pyrrolidin-1-yl)hexan-2-yl]imidazo[1,2-a]-pyridine-3-carboxamide] was run?
**A.** 1.00 µM

**Q.** For `CCCC[C@H](CN1CCN(C)CC1)NC(=O)c1c(C)nc2c(OCc3c(F)cccc3F)cccn12` [Example 67, ent-8-[(2,6-difluorobenzyl)oxy]-2-methyl-N-[(2R)-1-(4-methylpiperazin-1-yl)hexan-2-yl]imidazo[1,2-a]pyridine-3-carboxamide], which MEC is on record?
**A.** 0.30 µM

**Q.** With `CCCC[C@H](CN(C)C)NC(=O)c1c(C)nc2c(OCc3c(F)cccc3F)cccn12` [Example 68, ent-8-[(2,6-difluorobenzyl)oxy]-N-[(2R)-1-(dimethylamino)hexan-2-yl]-2-methylimidazo[1,2-a]pyridine-3-carboxamide] as the molecule, how does the MEC read?
**A.** 0.30 µM

**Q.** How did the MEC turn out when `CCCC[C@H](CN(CC)CC)NC(=O)c1c(C)nc2c(OCc3c(F)cccc3F)cccn12` [Example 69, ent-N-[(2R)-1-(diethylamino)hexan-2-yl]-8-[(2,6-difluorobenzyl)oxy]-2-methylimidazo[1,2-a]-pyridine-3-carboxamide] was run?
**A.** 1.00 µM

**Q.** With `CCCC[C@H](CNCCOC)NC(=O)c1c(C)nc2c(OCc3c(F)cccc3F)cccn12` [Example 70, ent-8-[(2,6-difluorobenzyl)oxy]-N-{(2R)-1-[(2-methoxyethyl)amino]hexan-2-yl}-2-methylimidazo[1,2-a]pyridine-3-carboxamide] as the molecule, how does the MEC read?
**A.** 1.00 µM

**Q.** With `CCN1C2CCCC1CC(NC(=O)c1c(C)nc3c(OCc4c(F)cccc4F)cccn13)C2` (stereo not drawn) [Example 71, 8-[(2,6-Difluorobenzyl)oxy]-N-(9-ethyl-9-azabicyclo[3.3.1]non-3-yl)-2-methylimidazo[1,2-a]-pyridine-3-carboxamide] as the molecule, how does the MEC read?
**A.** 0.30 µM

**Q.** How did the MEC turn out when `Cc1nc2c(OCc3c(F)cccc3F)cccn2c1C(=O)NCC(C)(C)N` [Example 72, N-(2-Amino-2-methylpropyl)-8-[(2,6-difluorobenzyl)oxy]-2-methylimidazo[1,2-a]pyridine-3-carboxamide] was run?
**A.** 0.30 µM

**Q.** For `Cc1nc2c(OCc3c(F)cccc3F)cc(Cl)cn2c1C(=O)NCC(C)(C)N` [Example 73, N-(2-Amino-2-methylpropyl)-6-chloro-8-[(2,6-difluorobenzyl)oxy]-2-methylimidazo[1,2-a]-pyridine-3-carboxamide], which MEC is on record?
**A.** 0.30 µM

**Q.** How did the MEC turn out when `Cc1nc2c(OCc3c(F)cccc3F)cccn2c1C(=O)NCCNc1ccc(F)cc1` [Example 79, 8-[(2,6-difluorobenzyl)oxy]-N-{2-[(4-fluoro-phenyl)amino]ethyl}-2-methylimidazo[1,2-a]-pyridine-3-carboxamide] was run?
**A.** 1.00 µM

**Q.** `Cc1nc2c(OCc3c(F)cccc3F)cccn2c1C(=O)NC1CC(C)(C)NC(C)(C)C1` [Example 82, 8-[(2,6-Difluorobenzyl)oxy]-2-methyl-N-(2,2,6,6-tetramethylpiperidin-4-yl)imidazo[1,2-a]-pyridine-3-carboxamide] was tested. Which MEC did it give?
**A.** 0.20 µM

**Q.** Which MEC does the source give for `Cc1nc2c(OCc3c(F)cccc3F)cccn2c1C(=O)NC1CC(C)(C)N(C)C(C)(C)C1` [Example 83, 8-[(2,6-difluorobenzyl)oxy]-2-methyl-N-(1,2,2,6,6-pentamethylpiperidin-4-yl)imidazo[1,2-a]pyridine-3-carboxamide] here?
**A.** 0.10 µM

**Q.** With `Cc1nc2c(OCc3c(F)cccc3F)cccn2c1C(=O)NCCN(C)C` [Example 86, 8-[(2,6-difluorobenzyl)oxy]-N-[2-(dimethyl-amino)ethyl]-2-methylimidazo[1,2-a]pyridine-3-carboxamide] as the molecule, how does the MEC read?
**A.** 2.00 µM

**Q.** For `Cc1nc2c(OCc3c(F)cccc3F)cccn2c1C(=O)NCCCN(C)C` [Example 87, 8-[(2,6-difluorobenzyl)oxy]-N-[3-(dimethyl-amino)propyl]-2-methylimidazo[1,2-a]-pyridine-3-carboxamide], which MEC is on record?
**A.** 1.00 µM

**Q.** With `Cc1nc2c(OCc3c(F)cccc3F)cccn2c1C(=O)NCCN(C(C)C)C(C)C` [Example 88, 8-[(2,6-difluorobenzyl)oxy]-N-[2-(diisopropyl-amino)ethyl]-2-methylimidazo[1,2-a]pyridine-3-carboxamide] as the molecule, how does the MEC read?
**A.** 1.00 µM
